Measured values published in patent US8802853B2, “Arylalkenyl and arylalkynyl substituted imidazoquinolines” (3M Innovative Properties Company, priority 2003, dated 2014).
Where a name gives a salt, the structure may show the parent alone.

| SMILES | melting point |
| --- | --- |
| CCc1nc2c(N)nc3ccccc3c2n1CC#Cc1cccnc1 (as salt: hydroiodid) [Example 1, 2-Ethyl-1-[3-(pyridin-3-yl)-2-propynyl]-1H-imidazo[4,5-c]quinolin-4-amine] | 249 to 251 °C (dec.) |
| CCc1nc2c(N)nc3ccccc3c2n1CC#Cc1ccccc1 (as salt: hydroiodid) [Example 4, 2-Ethyl-1-(3-phenyl-2-propynyl)-1H-imidazo[4,5-c]quinolin-4-amine] | 200 to 212 °C (dec.) |
| CCOC(=O)c1ccc(C#CCn2c(CC)nc3c(N)nc4ccccc4c32)cc1 [Example 6, Ethyl 4-[3-(4-Amino-2-ethyl-1H-imidazo[4,5-c]quinolin-1-yl)-1-propynyl]benzoate] | 221 to 222 °C (dec.) |
| CCc1nc2c(N)nc3ccccc3c2n1CC#Cc1cccc(C(F)(F)F)c1 [Example 8, 2-Ethyl-1-[3-(3-trifluoromethylphenyl)-2-propynyl]-1H-imidazo[4,5-c]quinolin-4-amine] | 202.5 to 203.5 °C |
| CCc1nc2c(N)nc3ccccc3c2n1CC#Cc1ccc([N+](=O)[O-])cc1 [Example 10, 2-Ethyl-1-[3-(4-nitrophenyl)-2-propynyl]-1H-imidazo[4,5-c]quinolin-4-amine] | 190 to 206 °C |
| CCc1nc2c(N)nc3ccccc3c2n1CCCC#Cc1cccs1 [Example 12, 2-Ethyl-1-[5-(thien-2-yl)-4-pentynyl]-1H-imidazo[4,5-c]quinolin-4-amine] | 175 to 190 °C (dec.) |
| CCc1nc2c(N)nc3ccccc3c2n1CCCC#Cc1cccc(C(F)(F)F)c1 [Example 16, 2-Ethyl-1-[5-(3-trifluoromethylphenyl)-4-pentynyl]-1H-imidazo[4,5-c]quinolin-4-amine] | 178 to 181 °C |
| CCc1nc2c(N)nc3ccccc3c2n1CCC/C=C/c1cccnc1 [Example 17, (E)-2-Ethyl-1-[5-(pyridin-3-yl)-4-pentenyl]-1H-imidazo[4,5-c]quinolin-4-amine] | 188 to 190 °C |
| CCc1nc2c(N)nc3ccccc3c2n1CCC/C=C/c1ccc(OC)cc1 [Example 18, (E)-2-Ethyl-1-[5-(4-methoxyphenyl)-4-pentenyl]-1H-imidazo[4,5-c]quinolin-4-amine] | 179 to 180 °C |

Second part, the compound after the results:

| melting point | SMILES |
| --- | --- |
| 185 to 205 °C | CCc1nc2c(N)nc3ccccc3c2n1CC#Cc1cccs1 (as salt: hydroiodid) [Example 2, 2-Ethyl-1-[3-(thien-2-yl)-2-propynyl]-1H-imidazo[4,5-c]quinolin-4-amine] |
| 180 to 225 °C (dec.) | CCc1nc2c(N)nc3ccccc3c2n1CC#Cc1cnccn1 (as salt: hydroiodid) [Example 5, 2-Ethyl-1-[3-(pyrazin-2-yl)-2-propynyl]-1H-imidazo[4,5-c]quinolin-4-amine] |
| 230 °C | CCc1nc2c(N)nc3ccccc3c2n1CCCC#Cc1ccc(OC)cc1 (as salt: hydroiodid) [Example 14, 2-Ethyl-1-[5-(4-methoxyphenyl)-4-pentynyl]-1H-imidazo[4,5-c]quinolin-4-amine] |
| 179 to 181 °C | CCc1nc2c(N)nc3ccccc3c2n1CC#Cc1ccc(OC)cc1 [Example 7, 2-Ethyl-1-[3-(4-methoxyphenyl)-2-propynyl]-1H-imidazo[4,5-c]quinolin-4-amine] |
| 234 to 235 °C (dec.) | CCc1nc2c(N)nc3ccccc3c2n1CC#Cc1ccccc1C(F)(F)F [Example 9, 2-Ethyl-1-[3-(2-trifluoromethylphenyl)-2-propynyl]-1H-imidazo[4,5-c]quinolin-4-amine] |
| 224 to 243 °C | CCc1nc2c(N)nc3ccccc3c2n1CC#Cc1cccc([N+](=O)[O-])c1 [Example 11, 2-Ethyl-1-[3-(3-nitrophenyl)-2-propynyl]-1H-imidazo[4,5-c]quinolin-4-amine] |
| 188 to 192 °C | CCc1nc2c(N)nc3ccccc3c2n1CCCC#Cc1cccnc1 [Example 13] |
| 199 to 202 °C | CCc1nc2c(N)nc3ccccc3c2n1CCCC#Cc1ccccc1 [Example 15, 2-Ethyl-1-(5-phenyl-4-pentynyl)-1H-imidazo[4,5-c]quinolin-4-amine] |
